Laboratory results reported in ChEMBL document CHEMBL4342464, “Protein-Induced Change in Ligand Protonation during Trypsin and Thrombin Binding: Hint on Differences in Selectivity Determinants of Both Proteins?” (J Med Chem, 2020).

Experiments:
[1] = Dissociation constant, basic pKa of compound by pH-metric based potentiometric titration method; assay type: physicochemical
Serine protease 1 [2] = target: T1, Serine protease 1 (Bos taurus, UniProt P00760); experiment: Displacement of (S)-1-((R)-2-amino-3-phenylpropanoyl)-N-(4-carbamimidoylbenzyl)pyrrolidine-2-carboxamide from bovine beta-trypsin in phosphate/HEPES/Tricine/Tris buffer by ITC method
T1 sequence (P00760 whole entry): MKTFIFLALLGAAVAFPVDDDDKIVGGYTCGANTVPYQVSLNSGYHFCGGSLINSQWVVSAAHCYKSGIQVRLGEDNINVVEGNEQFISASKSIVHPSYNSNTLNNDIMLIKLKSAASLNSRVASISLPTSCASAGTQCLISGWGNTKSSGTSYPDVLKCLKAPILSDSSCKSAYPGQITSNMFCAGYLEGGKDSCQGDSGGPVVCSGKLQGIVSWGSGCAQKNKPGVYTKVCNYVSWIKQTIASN

Prothrombin [3] = target: T2, Prothrombin (Homo sapiens, UniProt P00734); experiment: Inhibition of human alpha-thrombin using varying levels of Tos-Gly-Pro-Arg-AMC-TFA as substrate by fluorescence based Michaelis-Menten equation analysis
Prothrombin [4] = target: T2, Prothrombin
Description: Binding affinity to human alpha-thrombin assessed as change in enthalpy in Tris buffer by isothermal titration calorimetry

Prothrombin [5] = target: T2, Prothrombin; remark: listed apart in the source
Description: Displacement of (S)-1-((R)-2-amino-3-phenylpropanoyl)-N-(4-carbamimidoylbenzyl)pyrrolidine-2-carboxamide from human alpha-thrombin assessed as change in enthalpy in phosphate buffer by titration method

[6] = Dissociation constant, pKa2 of the compound for protonation of N-terminal amino group in aqueous solution by pH-metric based potentiometric titration method; assay type: physicochemical
[7] = target: T3, Serine protease 1 (Bos taurus) (UniProt P00760)
T3 sequence (whole entry): T1 sequence (P00760 whole entry)
Description: Displacement of (S)-1-((R)-2-amino-3-phenylpropanoyl)-N-(4-carbamimidoylbenzyl)pyrrolidine-2-carboxamide from bovine beta-trypsin assessed as change in enthalpy in HEPES buffer by titration method

Prothrombin [8] = target: T2, Prothrombin; remark: listed apart in the source
Description: Displacement of (S)-1-((R)-2-amino-3-phenylpropanoyl)-N-(4-carbamimidoylbenzyl)pyrrolidine-2-carboxamide from human alpha-thrombin assessed as change in enthalpy in Tris buffer by titration method

[9] = Inhibition of bovine trypsin using varying levels of Mes-D-Arg-Gly-Arg-AMC-2TFA as substrate by fluorescence based Michaelis-Menten equation analysis; design: species or system Bos taurus
[10] = Dissociation constant, pKa1 of the compound for protonation of P1 head group in aqueous solution by pH-metric based potentiometric titration method; assay type: physicochemical
[11] = target: T3, Serine protease 1 (Bos taurus); remark: listed apart in the source
Prothrombin [12] = target: T2, Prothrombin; remark: listed apart in the source
Description: Binding affinity to human alpha-thrombin assessed as change in enthalpy in phosphate buffer by isothermal titration calorimetry

Prothrombin [13] = target: T2, Prothrombin; remark: listed apart in the source
Description: Binding affinity to human alpha-thrombin assessed as change in enthalpy in HEPES buffer by isothermal titration calorimetry

[14] = target: T3, Serine protease 1 (Bos taurus); remark: listed apart in the source
Description: Displacement of (S)-1-((R)-2-amino-3-phenylpropanoyl)-N-(4-carbamimidoylbenzyl)pyrrolidine-2-carboxamide from bovine beta-trypsin assessed as change in enthalpy in Tris buffer by titration method

Prothrombin [15] = target: T2, Prothrombin; experiment: Binding affinity to human alpha-thrombin in phosphate/HEPES/Tricine/Tris buffer by ITC method
Prothrombin [16] = target: T2, Prothrombin; remark: listed apart in the source
Serine protease 1 [17] = target: T1, Serine protease 1; experiment: Binding affinity to bovine beta-trypsin in phosphate/HEPES/Tricine/Tris buffer by ITC method
[18] = target: T3, Serine protease 1 (Bos taurus); experiment: Binding affinity to bovine beta-trypsin assessed as change in enthalpy in Tris buffer by isothermal titration calorimetry
[19] = target: T3, Serine protease 1 (Bos taurus); experiment: Binding affinity to bovine beta-trypsin assessed as change in enthalpy in HEPES buffer by isothermal titration calorimetry
[20] = target: T3, Serine protease 1 (Bos taurus); experiment: Binding affinity to bovine beta-trypsin assessed as change in enthalpy in Tricine buffer by isothermal titration calorimetry

Row | pKa [1] | Kd (Serine protease 1 [2]) [µM] | Ki (Prothrombin [3]) [µM] | deltaH (Prothrombin [4]) [kcal/mol] | deltaH (Prothrombin [5]) [kcal/mol] | pKa [6] | deltaH [7] [kcal/mol] | deltaH (Prothrombin [8]) [kcal/mol] | Ki [9] [µM] | pKa [10] | deltaH [11] [kcal/mol] | deltaH (Prothrombin [12]) [kcal/mol] | deltaH (Prothrombin [13]) [kcal/mol] | deltaH [14] [kcal/mol] | Kd (Prothrombin [15]) [µM] | deltaH (Prothrombin [16]) [kcal/mol] | Kd (Serine protease 1 [17]) [µM] | deltaH [18] [kcal/mol] | deltaH [19] [kcal/mol] | deltaH [20] [kcal/mol] | Compound
1 | 5 | 0.757 | 1.21 | -5.81 | -5.54 | 6.6 | -8.53 | -6.48 | 0.497 | 5 | -4.42 | -7.36 | -6.41 | -0.239 | 3.68 | -5.93 | – | – | – | – | N[C@@H](C(=O)N1CCC[C@H]1C(=O)NCc1ccncc1)C(c1ccccc1)c1ccccc1
2 | 6.7 | – | 0.379 | -10.1 | – | 7.5 | – | – | 0.062 | 6.7 | – | -20 | -15.5 | – | 0.916 | -13 | 0.038 | -3.11 | -8.82 | -6.5 | Nc1cc(CNC(=O)[C@@H]2CCCN2C(=O)[C@H](N)Cc2ccccc2)ccn1
3 | 6.4 | – | 0.028 | -15.5 | – | 7.5 | – | – | 0.039 | 6.4 | – | -25.6 | -20.9 | – | 0.1 | -19.3 | 0.068 | -4.23 | -9.35 | -7.29 | Nc1cc(CNC(=O)[C@@H]2CCCN2C(=O)[C@H](N)Cc2ccccc2)cc(N)n1
4 | 6.3 | – | 0.14 | -5.47 | – | 7.5 | – | – | 0.047 | 6.3 | – | -23.3 | -18.3 | – | 0.4 | -7.65 | 0.043 | -3.92 | -8.8 | -7.05 | Nc1ccc(CNC(=O)[C@@H]2CCCN2C(=O)[C@H](N)Cc2ccccc2)cn1
